In patent US10870625B2, “Zwitterionic propargyl-linked antifolates useful for treating bacterial infections” (THE UNIVERSITY OF CONNECTICUT, priority 2016, dated 2020):
Converted amounts (≈) assume the structure as drawn. Where two headings read alike, the source gives them in different places. Marks after values point to notes of the source that are not given here.

Tests used:
Mtb = test: M. tuberculosis MIC, microtiter broth dilution (Table 6); assay type: cell-based, Mycobacterium tuberculosis; conditions: for MIC: Mycobacterium tuberculosis
Method: (§1) (provided by Leonid Heifets).
(§2) Each isolate was tested in duplicate.

[1] = test system: S. aureus ATCC strain 43300; test: microbe, parasite or virus in culture; assay type: cell-based, Staphylococcus aureus; conditions: for MIC Sa43300: Table 12, wild-type strain
[2] = test system: wild-type Gram-negative E. coli; conditions: background; cited from earlier work
Sa(H30N) strain [3] = test: microbe, parasite or virus in culture; conditions: Staphylococcus aureus, read-out: MIC Sa(H30N)
[4] = test system: methicillin-resistant S. aureus (MRSA); conditions: background; cited from earlier work
MtbDHFR = MtbDHFR (Mycobacterium tuberculosis (strain ATCC 25618 / H37Rv), UniProt P9WNX1); test: M. tuberculosis DHFR enzyme inhibition; assay type: biochemical
Mtb 352 = assay type: cell-based, Mycobacterium tuberculosis; conditions: MDR strain
Mtb 5 = assay type: cell-based, Mycobacterium tuberculosis; conditions: XDR strain
Mtb C-31 = assay type: cell-based, Mycobacterium tuberculosis; conditions: MDR strain
Mtb Erdman = Mtb Erdman MIC, microtiter broth dilution; assay type: cell-based, Mycobacterium tuberculosis
Method: as §1, §2

Mtb 56 = assay type: cell-based, Mycobacterium tuberculosis; conditions: MDR strain
Mtb 365 = assay type: cell-based, Mycobacterium tuberculosis; conditions: MDR strain
Mtb 276 = assay type: cell-based, Mycobacterium tuberculosis; conditions: MDR strain
Sa(H30N) strain [5] = test system: Sa(H30N) strain
E. coli NR698 = assay type: cell-based, Escherichia coli
E. coli (Ec) DHFR = E. coli (Ec) DHFR (Escherichia coli (strain K12), UniProt P0ABQ4); test: E. coli DHFR enzyme inhibition (NADPH oxidation, 340 nm); assay type: biochemical
E. coli (ATCC 25922) = test: E. coli MIC, microdilution broth assay; assay type: cell-based, Escherichia coli
Method: Minimum inhibitory concentrations were determined using E. coli (ATCC 25922) and the microdilution broth assay with an inoculum of […] CFU/mL in Isosensitest Broth (Oxoid).

[6] = test system: E. coli, efflux pumps genetically deleted; conditions: background; cited from earlier work
CYP3A4 = CYP3A4 (Homo sapiens (Human), UniProt P08684); test: Cytochrome P450 inhibition, CYP3A4
[7] = Microsomal stability assay (UPLC of parent compound)
S. aureus (Sa) DHFR = S. aureus (Sa) DHFR (Staphylococcus aureus, UniProt P0A017); assay type: biochemical; conditions: Table 2
CYP2D6 = CYP2D6 (Homo sapiens (Human), UniProt P10635); test: Cytochrome P450 inhibition, CYP2D6

COc1cc(Cc2cnc(N)nc2N)cc(OC)c1OC [TMP, trimethoprim]
MIC (Mtb): 256 µg/mL (≈ 882 µM) | MIC ([1]; Staphylococcus aureus, ATCC43300, read-out: MIC Sa43300): 0.312 µg/mL (≈ 1.08 µM) | MIC E. coli [2]: 0.3125 µg/mL (≈ 1.08 µM) | MIC (Sa(H30N) strain [3]): 2.5 µg/mL (≈ 8.61 µM) | MIC MRSA [4]: 0.3125 µg/mL (≈ 1.08 µM)

CCc1nc(N)nc(N)c1C#C[C@@H](C)c1cc(-c2ccncc2)ccc1OC [Compound 57]
IC50 (MtbDHFR): 73 nM | MIC Mtb (Mtb): 2 µg/mL (≈ 5.36 µM)

CCc1nc(N)nc(N)c1C#CCc1cc(-c2cncn2C)ccc1OC [Compound 56]
MIC Mtb 352 (Mtb 352): 4 µg/mL (≈ 11 µM) | IC50 (MtbDHFR): 126 nM | MIC Mtb (Mtb): 2 µg/mL (≈ 5.52 µM) | MIC Mtb 5 (Mtb 5): 4 µg/mL (≈ 11 µM) | MIC Mtb C-31 (Mtb C-31): 8 µg/mL (≈ 22.1 µM) | MIC Mtb Erdman (Mtb Erdman): 4 µg/mL (≈ 11 µM) | MIC Mtb56 (Mtb 56): 4 µg/mL (≈ 11 µM) | MIC Mtb 365 (Mtb 365): 4 µg/mL (≈ 11 µM) | MIC Mtb 276 (Mtb 276): 4 µg/mL (≈ 11 µM)

CCc1nc(N)nc(N)c1C#CCc1cc(OC)c(OC)c(-c2ccncc2)c1 [Compound 60]
MIC Sa43300 [1]: 0.0195 µg/mL (≈ 0.0501 µM) | MIC Sa(H30N) (Sa(H30N) strain [5]): 0.625 µg/mL (≈ 1.6 µM)

CCc1nc(N)nc(N)c1C#CC(C)c1cc(-c2ccncc2)ccc1OC (racemic) [C, reference compound]
MIC Sa43300 [1]: 0.625 µg/mL (≈ 1.67 µM) | MIC Sa(H30N) (Sa(H30N) strain [5]): 2.5 µg/mL (≈ 6.69 µM)

CCc1nc(N)nc(N)c1C#CCc1cc(OC)cc(-c2ccc(C(=O)O)cc2)c1 [Compound 16]
MIC S. aureus 43300 [1]: 0.0195 µg/mL (≈ 0.0485 µM) | MIC Sa43300 [1]: 0.0195 µg/mL (≈ 0.0485 µM) | MIC E. coli NR698 (E. coli NR698; Table 2): 4.9 ng/mL (≈ 0.0122 µM) | MIC Sa(H30N) (Sa(H30N) strain [5]): 0.1563 µg/mL (≈ 0.388 µM) | IC50 (E. coli (Ec) DHFR; Table 2): 507 nM | MIC E. coli 25922 (E. coli (ATCC 25922); Table 2, wild-type E. coli): >20 µg/mL

NNC(=O)c1ccncc1 [INH, Isoniazid, reference compound]
MIC (Mtb): 0.03 µg/mL (≈ 0.219 µM) | MIC (Mtb Erdman; Mycobacterium tuberculosis, ERDMAN): 0.125 µg/mL (≈ 0.911 µM)

CN(Cc1cnc2nc(N)nc(N)c2n1)c1ccc(C(=O)N[C@@H](CCC(=O)O)C(=O)O)cc1 [methotrexate]
MIC E. coli, efflux pumps genetically deleted [6]: 64 to 256 µM | MIC wild-type E. coli [2]: over 1 mM | MIC50 MRSA [4]: 20 µg/mL (≈ 44 µM) | MIC90 MRSA [4]: 100 µg/mL (≈ 220 µM)

CCc1nc(N)nc(N)c1C#CCc1cc2c(c(-c3cc(F)c(O)c(F)c3)c1)OCO2 [Compound 39]
MIC E. coli NR698 (E. coli NR698; Table 3): 1 ng/mL (≈ 0.00236 µM) | IC50 (E. coli (Ec) DHFR; Table 3): 625 nM | MIC E. coli 25922 (E. coli (ATCC 25922); Table 3): 0.625 µg/mL (≈ 1.47 µM)

CCc1nc(N)nc(N)c1C#CCc1cc2c(c(-c3ccc(O)cc3)c1)OCO2 [Compound 37]
MIC E. coli NR698 (E. coli NR698; Table 3): 2 ng/mL (≈ 0.00515 µM) | IC50 (E. coli (Ec) DHFR; Table 3): 2500 nM | MIC E. coli 25922 (E. coli (ATCC 25922); Table 3): 0.625 µg/mL (≈ 1.61 µM)

CCc1nc(N)nc(N)c1C#CC(C)c1cc(OC)cc(-c2ccc(C(=O)O)cc2)c1 (stereo not drawn) [Compound 58]
MIC Mtb 352 (Mtb 352): 0.06 µg/mL (≈ 0.144 µM) | MIC Mtb (Mtb): <0.03 µg/mL | MIC Mtb 5 (Mtb 5): 0.25 µg/mL (≈ 0.6 µM) | MIC Mtb C-31 (Mtb C-31): 8 µg/mL (≈ 19.2 µM) | MIC Mtb Erdman (Mtb Erdman): <0.03 µg/mL | MIC Mtb56 (Mtb 56): 0.06 µg/mL (≈ 0.144 µM) | MIC Mtb 365 (Mtb 365): <0.03 µg/mL

CCc1nc(N)nc(N)c1C#CCc1cc(-c2ccc(C(=O)O)cc2)ccc1OC [Compound 15]
MIC Mtb 352 (Mtb 352): 16 µg/mL (≈ 39.8 µM) | IC50 (MtbDHFR): 173 nM | MIC Mtb (Mtb): 4 µg/mL (≈ 9.94 µM) | concentration required for inhibition of CYP3A4 (CYP3A4): greater than 50 μM | MIC Mtb 5 (Mtb 5): 8 µg/mL (≈ 19.9 µM) | phase I half-life ([7]; phase I): 99 min | phase II half-life ([7]; phase II): approximately 87 min | MIC S. aureus 43300 [1]: 0.0195 µg/mL (≈ 0.0485 µM) | MIC Sa43300 [1]: 0.0195 µg/mL (≈ 0.0485 µM) | MIC E. coli NR698 (E. coli NR698; Table 2): 9.8 ng/mL (≈ 0.0244 µM) | IC50 (S. aureus (Sa) DHFR): 32 nM | concentration required for inhibition of CYP2D6 (CYP2D6): greater than 50 μM | MIC Mtb C-31 (Mtb C-31): >32 µg/mL | MIC Sa(H30N) (Sa(H30N) strain [5]): 0.1563 µg/mL (≈ 0.388 µM) | MIC Mtb Erdman (Mtb Erdman): 16 µg/mL (≈ 39.8 µM) | MIC Mtb56 (Mtb 56): 16 µg/mL (≈ 39.8 µM) | IC50 (E. coli (Ec) DHFR; Table 2): 90 nM | MIC Mtb 365 (Mtb 365): 4 µg/mL (≈ 9.94 µM) | MIC Mtb 276 (Mtb 276): 16 µg/mL (≈ 39.8 µM) | MIC E. coli 25922 (E. coli (ATCC 25922); Table 2, wild-type E. coli): >20 µg/mL

CCc1nc(N)nc(N)c1C#C[C@@H](C)c1cc(-c2ccc(C(=O)OC)cc2)ccc1OC [Compound 34]
MIC S. aureus 43300 ([1]; Table 2): 10 µg/mL (≈ 23.2 µM) | MIC E. coli NR698 (E. coli NR698; Table 2): 1875 ng/mL (≈ 4.36 µM) | IC50 (S. aureus (Sa) DHFR): 205 nM | IC50 (E. coli (Ec) DHFR; Table 2): 172 nM | MIC E. coli 25922 (E. coli (ATCC 25922); Table 2, wild-type E. coli): >20* μg/mL

CCc1nc(N)nc(N)c1C#CCc1cc(-c2ccccc2C(=O)O)ccc1OC [Compound 13]
MIC S. aureus 43300 [1]: >20 µg/mL | MIC E. coli NR698 (E. coli NR698; Table 2): 20000 ng/mL (≈ 49.7 µM) | IC50 (S. aureus (Sa) DHFR): 359 nM | IC50 (E. coli (Ec) DHFR; Table 2): 195 nM | MIC E. coli 25922 (E. coli (ATCC 25922); Table 2, wild-type E. coli): >32 µg/mL

CCc1nc(N)nc(N)c1C#CCc1cc2c(c(-c3ccc(O)c(F)c3)c1)OCO2 [Compound 38]
MIC E. coli NR698 (E. coli NR698; Table 3): 1 ng/mL (≈ 0.00246 µM) | IC50 (E. coli (Ec) DHFR; Table 3): 1250 nM | MIC E. coli 25922 (E. coli (ATCC 25922); Table 3): 0.625 µg/mL (≈ 1.54 µM)
